The record followed here is patent US20180353457A1, “ABIETANE DITERPENOID 7-ACETOXYROYLEANONES FOR USE IN CANCER TREATMENT” (University of South Carolina, priority 2017, published 2018).

Data set [1] concerns COLO 205 (colon cancer) cells. Briefly: NCI-60 five dose screen, COLO 205. The note with it: read-out: LC50; COLO 205, Colon.
Data set [2] concerns leukemia cell lines. Briefly: NCI-60 one dose screen, leukemia cell lines. In kind it is cell-based. The note with it: 10 μM, each leukemia cell line. The procedure: One dose and five dose cytotoxicity screening was performed by the NCI-60 screening program of the National Institutes of Health (NIH), which is known in the art and available from the NIH. The NCI-60 panel is a collection of cancer cell lines, from various diverse tumors, which was developed in the 1980s by the National Cancer Institute to aid screening efforts for cytotoxic or cytostatic compounds.
In these screens, 60 cell lines, were utilized to determine the cytotoxic effect of small molecules, natural products, and other drug candidates. […]
The five dose screen was performed by creating four 10-fold dilutions of the highest concentration of the diluted 7-acetoxyroyleanone made in the same manner as the one dose screen. […] The bound stain was then dissolved in 10 mM trizma base and the absorbance was read using an automated plate reader at 515 nm. […]

`CC(=O)O[C@@H]1C[C@H]2C(C)(C)CCC[C@]2(C)C2=C1C(=O)C(C(C)C)=C(O)C2=O` [7-acetoxyroyleanone]: the CC50 in data set [1] was determined as 6.3 µM. For the same compound, in data set [2], the “cell death versus growth inhibition” value was “did not appear to induce cell death, but rather growth inhibition”.
